Results: patent US20040127403A1, “Methods for treating and preventing Gram-positive bacteremias” (priority 2002, published 2004)

Test system: E. faecium A6345 Line-R
Assay: MIC, NCCLS broth microdilution
Assay type: cell-based
Experimental: The efficacy of ramoplanin was tested against recently isolated VRE that are resistant to linezolid and quinupristin/dalfopristin. The culture media containing ramoplanin was supplemented with 0.02% bovine serum albumin (BSA) to prevent ramoplanin binding to the plastic. MIC values were determined in both cation-adjusted Mueller-Hinton broth (CAMHB) and trypticase soy broth (TSB) by the National Committee for Clinical Laboratory Standards (NCCLS) broth microdilution method. Macromolecular biosynthesis experiments were done by following the incorporation of carbon-14-labeled N-acetylglucosamine, acetic acid, amino acids, uridine, and thymidine into peptidoglycan, fatty acid, protein, RNA and DNA, respectively.

[1] = E. faecium A6345 Line-R. as printed, second row of Table 3
[2] = E. faecium A6345 Line-R., first row of Table 3

## O=C(N[C@H](CO)[C@H](O)c1ccc([N+](=O)[O-])cc1)C(Cl)Cl [Chloramphenicol]
[1]
  reference MIC for strains used for killing curve: 16 µg/mL
[2]
  reference MIC for strains used for killing curve: 16 µg/mL

## CO[C@H]1/C=C/O[C@@]2(C)Oc3c(C)c(O)c4c(O)c(c(/C=N/N5CCN(C)CC5)c(O)c4c3C2=O)NC(=O)/C(C)=C\C=C\[C@H](C)[C@H](O)[C@@H](C)[C@@H](O)[C@@H](C)[C@H](OC(C)=O)[C@@H]1C [Rifampin]
[1]
  reference MIC for strains used for killing curve: 0.03 µg/mL
[2]
  reference MIC for strains used for killing curve: 16 µg/mL
